Assay results published in PubChem BioAssay (NCI).
Where “and” joins values, the source holds several entries; their conditions need not be identical. Equal values may be shown once.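 Results reflect a 48-hour exposure of cells in 96-well plates to compound at five concentrations. GI50 is the concentration that inhibits growth by half. Definition used: TGI = concentration required for complete inhibition of growth.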

Tests used:
Assay in all cases: DTP human tumour cell line panel, 48 h; in the data active = GI50 below about 0.43 µM; inactive = the rest
UACC-62 melanoma = test system: UACC-62 melanoma
HCT-116 colon = test system: HCT-116 colon
MCF7 breast = test system: MCF7 breast
SF-539 CNS = test system: SF-539 CNS
OVCAR-4 ovarian = test system: OVCAR-4 ovarian
SF-295 CNS = test system: SF-295 CNS
EKVX NSCLC = test system: EKVX NSCLC
KM12 colon = test system: KM12 colon
NCI-H226 lung = test system: NCI-H226 lung
UO-31 renal = test system: UO-31 renal
COLO 205 colon = test system: COLO 205 colon
NCI-H522 lung = test system: NCI-H522 lung
HOP-62 NSCLC = test system: HOP-62 NSCLC
OVCAR-3 ovarian = test system: OVCAR-3 ovarian
SW-620 colon = test system: SW-620 colon
SF-268 CNS = test system: SF-268 CNS
DU-145 prostate = test system: DU-145 prostate
BT-549 breast = test system: BT-549 breast
LOX IMVI melanoma = test system: LOX IMVI melanoma
A498 renal = test system: A498 renal
M14 melanoma = test system: M14 melanoma
786-0 renal = test system: 786-0 renal
A549 NSCLC = test system: A549 NSCLC
SN12C renal = test system: SN12C renal
OVCAR-8 ovarian = test system: OVCAR-8 ovarian
CAKI-1 renal = test system: CAKI-1 renal
SK-MEL-5 melanoma = test system: SK-MEL-5 melanoma
ACHN renal = test system: ACHN renal
PC-3 prostate = test system: PC-3 prostate
SK-MEL-28 melanoma = test system: SK-MEL-28 melanoma
IGROV1 ovarian = test system: IGROV1 ovarian
K-562 leukemia = test system: K-562 leukemia
MDA-MB-231 breast = test system: MDA-MB-231 breast
HS 578T breast = test system: HS 578T breast
SNB-75 CNS = test system: SNB-75 CNS
SK-OV-3 ovarian = test system: SK-OV-3 ovarian
NCI-H460 lung = test system: NCI-H460 lung
HCT-15 colon = test system: HCT-15 colon
SNB-19 CNS = test system: SNB-19 CNS
HCC-2998 colon = test system: HCC-2998 colon
UACC-257 melanoma = test system: UACC-257 melanoma
NCI/ADR-RES ovarian = test system: NCI/ADR-RES ovarian
MOLT-4 leukemia = test system: MOLT-4 leukemia
T-47D breast = test system: T-47D breast
TK-10 renal = test system: TK-10 renal
OVCAR-5 ovarian = test system: OVCAR-5 ovarian
U251 CNS = test system: U251 CNS
NCI-H23 lung = test system: NCI-H23 lung
HT29 colon = test system: HT29 colon
SK-MEL-2 melanoma = test system: SK-MEL-2 melanoma
MALME-3M melanoma = test system: MALME-3M melanoma
MDA-MB-435 = test system: MDA-MB-435
HL-60(TB) leukemia = test system: HL-60(TB) leukemia
HOP-92 NSCLC = test system: HOP-92 NSCLC
CCRF-CEM leukemia = test system: CCRF-CEM leukemia
RXF 393 renal = test system: RXF 393 renal

CNC(=O)C(CCc1ccccc1)NC(=O)C(CC(=O)NO)CC(C)C (stereo not drawn)
inactive: GI50 (UACC-62 melanoma) > 25 µM | GI50 (HCT-116 colon) > 25 µM | GI50 (MCF7 breast) > 25 µM | GI50 (SF-539 CNS) > 25 µM | GI50 (OVCAR-4 ovarian) > 25 µM | GI50 (SF-295 CNS) > 25 µM | GI50 (EKVX NSCLC) 8.31 µM | GI50 (KM12 colon) > 25 µM | GI50 (NCI-H226 lung) > 25 µM | GI50 (UO-31 renal) > 25 µM | GI50 (COLO 205 colon) > 25 µM | GI50 (NCI-H522 lung) > 25 µM | GI50 (HOP-62 NSCLC) > 25 µM | GI50 (OVCAR-3 ovarian) > 25 µM | GI50 (SW-620 colon) > 25 µM | GI50 (SF-268 CNS) > 25 µM | GI50 (DU-145 prostate) > 25 µM | GI50 (BT-549 breast) > 25 µM | GI50 (LOX IMVI melanoma) > 25 µM | GI50 (A498 renal) > 25 µM | GI50 (M14 melanoma) > 25 µM | GI50 (786-0 renal) > 25 µM | GI50 (A549 NSCLC) > 25 µM | GI50 (SN12C renal) > 25 µM | GI50 (OVCAR-8 ovarian) > 25 µM | GI50 (CAKI-1 renal) > 25 µM | GI50 (SK-MEL-5 melanoma) > 25 µM | GI50 (ACHN renal) > 25 µM | GI50 (PC-3 prostate) > 25 µM | GI50 (SK-MEL-28 melanoma) > 25 µM | GI50 (IGROV1 ovarian) > 25 µM | GI50 (K-562 leukemia) 19.6 µM | GI50 (MDA-MB-231 breast) > 25 µM | GI50 (HS 578T breast) > 25 µM | GI50 (SNB-75 CNS) > 25 µM | GI50 (SK-OV-3 ovarian) > 25 µM | GI50 (NCI-H460 lung) > 25 µM | GI50 (HCT-15 colon) > 25 µM | GI50 (SNB-19 CNS) > 25 µM | GI50 (HCC-2998 colon) > 25 µM | GI50 (UACC-257 melanoma) > 25 µM | GI50 (NCI/ADR-RES ovarian) > 25 µM | GI50 (MOLT-4 leukemia) > 25 µM | GI50 (T-47D breast) > 25 µM | GI50 (TK-10 renal) > 25 µM | GI50 (OVCAR-5 ovarian) > 25 µM | GI50 (U251 CNS) > 25 µM | GI50 (NCI-H23 lung) > 25 µM | GI50 (HT29 colon) > 25 µM | GI50 (SK-MEL-2 melanoma) > 25 µM | GI50 (MALME-3M melanoma) > 25 µM | GI50 (MDA-MB-435) > 25 µM
> 25 µM: TGI (UACC-62 melanoma) | TGI (HCT-116 colon) | TGI (MCF7 breast) | TGI (SF-539 CNS) | TGI (OVCAR-4 ovarian) | TGI (SF-295 CNS) | TGI (EKVX NSCLC) | TGI (KM12 colon) | TGI (NCI-H226 lung) | TGI (UO-31 renal) | TGI (COLO 205 colon) | TGI (NCI-H522 lung) | TGI (HOP-62 NSCLC) | TGI (OVCAR-3 ovarian) | TGI (SW-620 colon) | TGI (SF-268 CNS) | TGI (DU-145 prostate) | TGI (BT-549 breast) | TGI (LOX IMVI melanoma) | TGI (A498 renal) | TGI (M14 melanoma) | TGI (786-0 renal) | TGI (A549 NSCLC) | TGI (SN12C renal) | TGI (OVCAR-8 ovarian) | TGI (CAKI-1 renal) | TGI (SK-MEL-5 melanoma) | TGI (ACHN renal) | TGI (PC-3 prostate) | TGI (SK-MEL-28 melanoma) | TGI (IGROV1 ovarian) | TGI (K-562 leukemia) | TGI (MDA-MB-231 breast) | TGI (HS 578T breast) | TGI (SNB-75 CNS) | TGI (SK-OV-3 ovarian) | TGI (NCI-H460 lung) | TGI (HCT-15 colon) | TGI (SNB-19 CNS) | TGI (HCC-2998 colon) | TGI (UACC-257 melanoma) | TGI (NCI/ADR-RES ovarian) | TGI (MOLT-4 leukemia) | TGI (T-47D breast) | TGI (TK-10 renal) | TGI (OVCAR-5 ovarian) | TGI (U251 CNS) | TGI (NCI-H23 lung) | TGI (HT29 colon) | TGI (SK-MEL-2 melanoma) | TGI (MALME-3M melanoma) | TGI (MDA-MB-435)

CCN(CC)CCCC(CO)Nc1ccnc2cc(Cl)ccc12 (stereo not drawn)
35.4 µM and 35.3 µM: TGI (SF-539 CNS)
> 100 µM and 88.5 µM: TGI (HOP-92 NSCLC)
> 100 µM and 39.8 µM: TGI (CCRF-CEM leukemia)
46.6 µM and 45.3 µM: TGI (SF-295 CNS)
30.9 µM and 31.2 µM: TGI (M14 melanoma)
> 100 µM and 85.5 µM: TGI (CAKI-1 renal)
57.5 µM and > 100 µM: TGI (SK-MEL-28 melanoma)
59.1 µM and 49.9 µM: TGI (MALME-3M melanoma)
77.1 µM and > 100 µM: TGI (OVCAR-3 ovarian)
inactive: GI50 (UACC-62 melanoma) 22.2 µM and 37.7 µM | GI50 (HCT-116 colon) 21.9 µM and 26.3 µM | GI50 (MCF7 breast) 47.9 µM and 56.1 µM | GI50 (SF-539 CNS) 15.9 µM and 17.3 µM | GI50 (OVCAR-4 ovarian) > 100 µM and 58.2 µM | GI50 (SF-295 CNS) 18.9 µM and 18 µM | GI50 (EKVX NSCLC) 54.5 µM and 74.2 µM | GI50 (KM12 colon) 49.1 µM and 66.8 µM | GI50 (NCI-H226 lung) > 100 µM and 36.5 µM | GI50 (UO-31 renal) > 100 µM | GI50 (COLO 205 colon) 39.9 µM and 34.5 µM | GI50 (NCI-H522 lung) 56.9 µM and > 100 µM | GI50 (HOP-62 NSCLC) 82.4 µM and 68.2 µM | GI50 (OVCAR-3 ovarian) 28.3 µM and 32.6 µM | GI50 (SW-620 colon) 50.6 µM and > 100 µM | GI50 (SF-268 CNS) 64.3 µM and 75.7 µM | GI50 (DU-145 prostate) > 100 µM | GI50 (BT-549 breast) 33.8 µM and 30.8 µM | GI50 (LOX IMVI melanoma) 30.1 µM and 27.6 µM | GI50 (A498 renal) > 100 µM and 32.7 µM | GI50 (M14 melanoma) 16.6 µM and 17 µM | GI50 (786-0 renal) 54.9 µM and 42.3 µM | GI50 (A549 NSCLC) 50.9 µM and 73.7 µM | GI50 (SN12C renal) > 100 µM and 48.5 µM | GI50 (HL-60(TB) leukemia) 24.4 µM and 25 µM | GI50 (OVCAR-8 ovarian) 38.5 µM and 56.1 µM | GI50 (CAKI-1 renal) 32.7 µM and 30.7 µM | GI50 (SK-MEL-5 melanoma) 20 µM and 18 µM | GI50 (ACHN renal) > 100 µM and 54.1 µM | GI50 (PC-3 prostate) 66.2 µM and 34.4 µM | GI50 (SK-MEL-28 melanoma) 25 µM and > 100 µM | GI50 (IGROV1 ovarian) > 100 µM | GI50 (K-562 leukemia) 30.4 µM and 36.3 µM | GI50 (MDA-MB-231 breast) 70.3 µM and 57.1 µM | GI50 (HOP-92 NSCLC) 22.6 µM and 20.5 µM | GI50 (HS 578T breast) > 100 µM and 72.5 µM | GI50 (CCRF-CEM leukemia) 45.4 µM and 15 µM | GI50 (SNB-75 CNS) > 100 µM | GI50 (SK-OV-3 ovarian) > 100 µM and 91.5 µM | GI50 (NCI-H460 lung) 66.2 µM and 82.7 µM | GI50 (HCT-15 colon) > 100 µM | GI50 (SNB-19 CNS) > 100 µM | GI50 (UACC-257 melanoma) 18.1 µM and 19.2 µM | GI50 (MOLT-4 leukemia) 31 µM and 34.3 µM | GI50 (T-47D breast) > 100 µM | GI50 (TK-10 renal) 46 µM and 32.4 µM | GI50 (U251 CNS) 67.6 µM and 70.8 µM | GI50 (HT29 colon) 32.2 µM and 64.3 µM | GI50 (SK-MEL-2 melanoma) > 100 µM and 90.2 µM | GI50 (MALME-3M melanoma) 29.4 µM and 26.5 µM | GI50 (RXF 393 renal) 35.8 µM and 41.1 µM | GI50 (MDA-MB-435) 19.5 µM and 20.5 µM
59.6 µM and 51.5 µM: TGI (LOX IMVI melanoma)
> 100 µM and 92.8 µM: TGI (NCI-H226 lung)
> 100 µM: TGI (MCF7 breast) | TGI (OVCAR-4 ovarian) | TGI (EKVX NSCLC) | TGI (KM12 colon) | TGI (UO-31 renal) | TGI (COLO 205 colon) | TGI (NCI-H522 lung) | TGI (HOP-62 NSCLC) | TGI (SW-620 colon) | TGI (SF-268 CNS) | TGI (DU-145 prostate) | TGI (BT-549 breast) | TGI (A498 renal) | TGI (786-0 renal) | TGI (A549 NSCLC) | TGI (SN12C renal) | TGI (HL-60(TB) leukemia) | TGI (OVCAR-8 ovarian) | TGI (ACHN renal) | TGI (PC-3 prostate) | TGI (IGROV1 ovarian) | TGI (K-562 leukemia) | TGI (MDA-MB-231 breast) | TGI (HS 578T breast) | TGI (SNB-75 CNS) | TGI (SK-OV-3 ovarian) | TGI (NCI-H460 lung) | TGI (HCT-15 colon) | TGI (SNB-19 CNS) | TGI (MOLT-4 leukemia) | TGI (T-47D breast) | TGI (TK-10 renal) | TGI (U251 CNS) | TGI (HT29 colon) | TGI (SK-MEL-2 melanoma) | TGI (RXF 393 renal)
42.7 µM and 43.2 µM: TGI (MDA-MB-435)
49.6 µM and > 100 µM: TGI (UACC-62 melanoma)
33 µM and 35.2 µM: TGI (UACC-257 melanoma)
73.7 µM and 80.1 µM: TGI (HCT-116 colon)
44.8 µM and 37.6 µM: TGI (SK-MEL-5 melanoma)
